Results taken from ChEMBL document CHEMBL6127119 (J Med Chem, 2024).
Values after ≈ are worked out from the molar mass of the structure shown.

How the values were obtained:
[1] = test system: Klebsiella pneumoniae; assay: Antibacterial activity against Klebsiella pneumoniae clinical isolate incubated for 16 to 24 hrs by CLSI based broth microdilution method; type: functional; details: time 16-24 hrs
[2] = test system: Enterococcus faecium; assay: Antibacterial activity against vancomycin-resistant Enterococcus faecium harboring VanM phenotype incubated for 16 to 24 hrs by CLSI based broth microdilution method; type: functional; details: time 16-24 hrs
[3] = test system: Acinetobacter baumannii; assay: Antibacterial activity against Carbapenem-resistant Acinetobacter baumannii clinical isolate incubated for 16 to 24 hrs by CLSI based broth microdilution method; type: functional; details: time 16-24 hrs
[4] = test system: Enterococcus faecium; assay: Antibacterial activity against vancomycin-resistant Enterococcus faecium harboring VanA phenotype incubated for 16 to 24 hrs by CLSI based broth microdilution method; type: functional; details: time 16-24 hrs
[5] = test system: Enterococcus faecium; assay: Antibacterial activity against vancomycin-resistant Enterococcus faecium harboring VanB phenotype incubated for 16 to 24 hrs by CLSI based broth microdilution method; type: functional; details: time 16-24 hrs
[6] = test system: Escherichia coli; assay: Antibacterial activity against Escherichia coli AB1157 incubated for 16 to 24 hrs by CLSI based broth microdilution method; type: functional; details: time 16-24 hrs
[7] = test system: Staphylococcus aureus; assay: Antibacterial activity against vancomycin-intermediate Staphylococcus aureus incubated for 16 to 24 hrs by CLSI based broth microdilution method; type: functional; details: time 16-24 hrs
[8] = test system: Staphylococcus aureus; assay: Induction of drug resistance in vancomycin-sensitive Staphylococcus aureus MRSA252 assessed as fold increase in MIC measured after 16 days of serial passages by broth microdilution method; type: functional; details: time 16 day
[9] = test system: Staphylococcus aureus; assay: Antibacterial activity against methicillin-susceptible Staphylococcus aureus incubated for 16 to 24 hrs by CLSI based broth microdilution method; type: functional; details: time 16-24 hrs
[10] = test system: Pseudomonas aeruginosa; assay: Antibacterial activity against Pseudomonas aeruginosa PAO1 incubated for 16 to 24 hrs by CLSI based broth microdilution method; type: functional; details: time 16-24 hrs
[11] = test system: Acinetobacter baumannii; assay: Potency index, ratio of Norvancomycin MIC to test compound MIC for Carbapenem-resistant Acinetobacter baumannii clinical isolate incubated for 16 to 24 hrs by CLSI based broth microdilution method; type: functional; details: time 16-24 hrs
[12] = test system: Staphylococcus aureus; assay: Potency index, ratio of Norvancomycin MIC to test compound MIC for vancomycin-intermediate Staphylococcus aureus incubated for 16 to 24 hrs by CLSI based broth microdilution method; type: functional; details: time 16-24 hrs
[13] = test system: Enterococcus faecium; assay: Potency index, ratio of Vancomycin MIC to test compound MIC for vancomycin-resistant Enterococcus faecium incubated for 16 to 24 hrs by CLSI based broth microdilution method; type: functional; details: time 16-24 hrs
[14] = test system: Escherichia coli; assay: Potency index, ratio of Vancomycin MIC to test compound MIC for Escherichia coli […] incubated for 16 to 24 hrs by CLSI based broth microdilution method; type: functional; details: time 16-24 hrs
[15] = test system: Enterococcus faecium; assay: Potency index, ratio of Norvancomycin MIC to test compound MIC for vancomycin-resistant Enterococcus faecium incubated for 16 to 24 hrs by CLSI based broth microdilution method; type: functional; details: time 16-24 hrs
[16] = test system: Escherichia coli; assay: Potency index, ratio of Norvancomycin MIC to test compound MIC for Escherichia coli […] incubated for 16 to 24 hrs by CLSI based broth microdilution method; type: functional; details: time 16-24 hrs
[17] = test system: Acinetobacter baumannii; assay: Potency index, ratio of Vancomycin MIC to test compound MIC for Carbapenem-resistant Acinetobacter baumannii clinical isolate incubated for 16 to 24 hrs by CLSI based broth microdilution method; type: functional; details: time 16-24 hrs
[18] = test system: Staphylococcus aureus; assay: Potency index, ratio of Vancomycin MIC to test compound MIC for vancomycin-intermediate Staphylococcus aureus incubated for 16 to 24 hrs by CLSI based broth microdilution method; type: functional; details: time 16-24 hrs
[19] = test system: HEK-293T; assay: Cytotoxicity against HEK293T cells at 100 ug/ml incubated for 72 hrs by MTT assay; type: toxicity, cell-based; details: human, dose 100 µg/ml
[20] = test system: HEK-293T; assay: Cytotoxicity against HEK293T cells upto […] incubated for 72 hrs by MTT assay; type: toxicity, cell-based; details: human

Structure (SMILES)	MIC [1] [mg/L]	MIC [2] [mg/L]	MIC [3] [mg/L]	MIC [4] [mg/L]	MIC [5] [mg/L]	MIC [6] [mg/L]	MIC [7] [mg/L]	fold change (FC) [8]	MIC [9] [mg/L]	MIC [10] [mg/L]	Ratio [11]	Ratio [12]	Ratio [13]	Ratio [14]	Ratio [15]	Ratio [16]	Ratio [17]	Ratio [18]	Activity [19]	Activity [20]
CCCCCCCCCC(=O)N[C@@H](Cc1c[nH]c2ccccc12)C(=O)N[C@@H](CC(N)=O)C(=O)N[C@@H](CC(=O)O)C(=O)N[C@@H]1C(=O)NCC(=O)N[C@@H](CCCN)C(=O)N[C@@H](CC(=O)O)C(=O)N[C@H](C)C(=O)N[C@@H](CC(=O)O)C(=O)NCC(=O)N[C@H](CO)C(=O)N[C@@H]([C@@H](C)CC(=O)O)C(=O)N[C@@H](CC(=O)c2ccccc2N)C(=O)O[C@@H]1C	> 128	8 (≈ 4.94 µM)	128 (≈ 79 µM)	8 (≈ 4.94 µM)	8 (≈ 4.94 µM)	128 (≈ 79 µM)	4 (≈ 2.47 µM)	8	2 (≈ 1.23 µM)	> 128										
CC(C)C[C@@H](N)C(=O)N[C@H]1C(=O)N[C@@H](CC(N)=O)C(=O)N[C@H]2C(=O)N[C@H]3C(=O)N[C@H](C(=O)N[C@H](C(=O)NCc4ccc(-c5ccccc5CNC(=N)N)cc4)c4cc(O)cc(O)c4-c4cc3ccc4O)[C@H](O)c3ccc(c(Cl)c3)Oc3cc2cc(c3O[C@@H]2O[C@H](CO)[C@@H](O)[C@H](O)[C@H]2O[C@H]2C[C@](C)(N)[C@H](O)[C@H](C)O2)Oc2ccc(cc2Cl)[C@H]1O	> 128	2 (≈ 1.2 µM)	16 (≈ 9.57 µM)	4 (≈ 2.39 µM)	2 (≈ 1.2 µM)	8 (≈ 4.79 µM)	0.5 (≈ 0.299 µM)		≤ 0.063	32 (≈ 19.1 µM)	2	2	2	2	2	2	2	2		
CN[C@H](CC(C)C)C(=O)N[C@H]1C(=O)N[C@@H](CC(N)=O)C(=O)N[C@H]2C(=O)N[C@H]3C(=O)N[C@H](C(=O)N[C@H](C(=O)NCCCCCCCCNC(=N)N)c4cc(O)cc(O)c4-c4cc3ccc4O)[C@H](O)c3ccc(c(Cl)c3)Oc3cc2cc(c3O[C@@H]2O[C@H](CO)[C@@H](O)[C@H](O)[C@H]2O[C@H]2C[C@](C)(N)[C@H](O)[C@H](C)O2)Oc2ccc(cc2Cl)[C@H]1O	128 (≈ 79.1 µM)	16 (≈ 9.89 µM)	32 (≈ 19.8 µM)	8 (≈ 4.95 µM)	8 (≈ 4.95 µM)	16 (≈ 9.89 µM)	1 (≈ 0.618 µM)		0.25 (≈ 0.155 µM)	128 (≈ 79.1 µM)									Non-Toxic	Non-Toxic
CC(C)C[C@@H](N)C(=O)N[C@H]1C(=O)N[C@@H](CC(N)=O)C(=O)N[C@H]2C(=O)N[C@H]3C(=O)N[C@H](C(=O)N[C@H](C(=O)NCc4ccc(-c5cccc(CNC(=N)N)c5)cc4)c4cc(O)cc(O)c4-c4cc3ccc4O)[C@H](O)c3ccc(c(Cl)c3)Oc3cc2cc(c3O[C@@H]2O[C@H](CO)[C@@H](O)[C@H](O)[C@H]2O[C@H]2C[C@](C)(N)[C@H](O)[C@H](C)O2)Oc2ccc(cc2Cl)[C@H]1O	> 128	1 (≈ 0.598 µM)	64 (≈ 38.3 µM)	2 (≈ 1.2 µM)	2 (≈ 1.2 µM)	16 (≈ 9.57 µM)	0.25 (≈ 0.15 µM)		≤ 0.063	128 (≈ 76.6 µM)	2	2	2	2	2	2	2	2		
